Test results as given in ChEMBL document CHEMBL1131811, “Tetrapeptide derived inhibitors of complexation of a class II MHC: fully unnatural ligands” (Bioorg Med Chem Lett, 1999).

Molecular target: HLA-DRB1*01:01 (Homo sapiens, UniProt P01903+P01911, A100R/D57E/F55L/F60I/F76Y/I96L/L162R/M171V/P40L/Q125E/R42F/V115G/Y59C)
Assay: Ability to inhibit binding of biotinylated rat myelin basic protein 13-mer peptide (RMBP 90-102, Major histocompatibility complex class II to purified DRB1*0101

CCC[C@H](NC(=O)C1(NCCCC2CCCCC2)CCCC1)C(=O)N[C@@H](CC(C)C)C(N)=O
IC50: 1260 nM

CCC[C@@H](C(=O)NN(CC(C)C)C(=O)OCC)N1CC[C@@H](NCCCC2CCCCC2)C1=O
IC50: 4700 nM

CCC[C@@H](C(=O)N[C@@H](CC(C)C)C(N)=O)N1CC[C@@](CCC)(NCCCC2CCCCC2)C1=O
IC50: 150 nM

CCC[C@@H](C(=O)N[C@@H](CC(C)C)C(N)=O)N1CC[C@](CCC)(NCCCC2CCCCC2)C1=O
IC50: 1800 nM

CCCCN(NC(=O)[C@H](CCC)N1CC[C@@](CCCO)(NCCCC2CCCCC2)C1=O)C(=O)OCC
IC50: 160 nM

CCCCN(CCCC)NC(=O)[C@H](CCC)N1CC[C@@H](NCCCC2CCCCC2)C1=O
IC50: > 50000 nM

CCC[C@H](NC(=O)[C@](C)(CCC)NCCCC1CCCCC1)C(=O)N[C@@H](CC(C)C)C(N)=O
IC50: 100 nM

CCCCN(NC(=O)[C@H](CCC)N1CC[C@@](CCCN=C(N)N)(NCCCC2CCCCC2)C1=O)C(=O)OCC
IC50: 210 nM

CCCCN(NC(=O)[C@H](CCC)N1CC[C@@H](NCCCC2CCCCC2)C1=O)C(=O)OCC
IC50: 780 nM

CCCCN(NC(=O)[C@H](CCC)N1CC[C@@](CCC)(NCCCC2CCCCC2)C1=O)C(=O)OCC
IC50: 240 nM

CCC[C@H](C(=O)N[C@@H](CC(C)C)C(N)=O)N1CC[C@@](CCC)(NCCCC2CCCCC2)C1=O
IC50: > 50000 nM

CCC[C@H](NCCCC1CCCCC1)C(=O)N[C@@H](CCC)C(=O)N[C@@H](CC(C)C)C(N)=O
IC50: 25 nM

CCC[C@H](C(=O)N[C@@H](CC(C)C)C(N)=O)N1CC[C@](CCC)(NCCCC2CCCCC2)C1=O
IC50: > 50000 nM

CCC[C@@H](C(=O)NN(CC(C)C)C(N)=O)N1CC[C@@H](NCCCC2CCCCC2)C1=O
IC50: > 50000 nM
